These results are taken from patent publication US10222368B2 (priority 2012, dated 2019).

The test addresses T1, mu opiate receptor (MOR) (Rattus norvegicus, UniProt P33535).
T1 construct: from tissue; host or cells: striatal tissue (membrane preparation)
The test can be described thus: MOR agonist activity using [35S]GTPγS binding assay in striatal membranes. Conditions: for MOR agonist activity, [35S]GTPγS binding, FLNA-binding compound as agonist at 0.1 μM / MOR agonist activity, [35S]GTPγS binding, FLNA-binding compound as agonist at 1 μM: Series C-2; for MOR agonist activity, [35S]GTPγS binding, 1 μM + BFNA: 1 μM compound + 1 μM β-FNA (MOR antagonist); for MOR agonist activity ([35S]GTPγS binding to Gαo), preliminary study: average of two runs. The class given is biochemical. The method, then:
To assess the mu opiate receptor (MOR) agonist activity of positive compounds from the FLNA screening, compounds were tested in a [^35S]GTPγS binding assay using striatal membranes. […] This assay measures a functional consequence of receptor occupancy at one of the earliest receptor-mediated events. The assay permits for traditional pharmacological parameters of potency, efficacy and antagonist affinity, with the advantage that agonist measures are not subjected to amplification or other modulation that may occur when analyzing parameters further downstream of the receptor.
Thus, striatal tissue was homogenized in 10 volumes of ice cold 25 mM HEPES buffer, pH 7.4, which contained 1 mM EGTA, 100 mM sucrose, 50 μg/ml leupeptin, 0.04 mM PMSF, 2 μg/ml soybean trypsin inhibitor and 0.2% 2-mercaptoethanol. The homogenates were centrifuged at 800×g for 5 minutes and the supernatants were centrifuged at 49,000×g for 20 minutes.
The resultant striatal membrane preparation (200 μg) was admixed and maintained (incubated) at 30° C. for 5 minutes in reaction buffer as above that additionally contained 1 mM MgCl2 and 0.5 nM [^35S]GTPγS (0.1 μCi/assay, PerkinElmer Life and Analytical Sciences) in a total volume of 250 μl and continued for 5 minutes in the absence or presence of 0.1-10 μM of an assayed compound of interest. The reaction was terminated by dilution with 750 μl of ice-cold reaction buffer that contained 20 mM MgCl2 and 1 mM EGTA and immediate centrifugation at 16,000×g for 5 minutes.
Normal rabbit serum (1 μl) was added to 1 ml of lysate and incubated at 25° C. for 30 minutes. Nonspecific immune complexes were removed by incubation with 25 μl of protein A/G-conjugated agarose beads at 25° C. for 30 minutes followed by centrifugation at 5,000×g at 4° C. for 5 minutes. The supernatant was divided and separately incubated at 25° C. for 30 minutes with antibodies raised against Gαo proteins (1:1,000 dilutions).
The immunocomplexes so formed were collected by incubation at 25° C. for 30 minutes with 40 μl of agarose-conjugated protein A/G beads and centrifugation at 5,000×g at 4° C. for 5 minutes. The pellet was washed and suspended in buffer containing 50 mM Tris-HCl, pH 8.0, and 1% NP-40. The radioactivity in the suspension was determined by liquid scintillation spectrometry.

The mark [1] stands for this setting: 0.1 μM compound, striatal membranes.
Setting [2] is: 1 μM compound, striatal membranes.
[3] abbreviates: Series C-1, 0.1 μM compound relative to DAMGO (0.1 μM).
Setting [4] is: Series C-1, 1 μM compound + BFNA relative to DAMGO + BFNA.
The mark [5] stands for this setting: 1 μM compound, relative to DAMGO.

T1 sequence (P33535 whole entry): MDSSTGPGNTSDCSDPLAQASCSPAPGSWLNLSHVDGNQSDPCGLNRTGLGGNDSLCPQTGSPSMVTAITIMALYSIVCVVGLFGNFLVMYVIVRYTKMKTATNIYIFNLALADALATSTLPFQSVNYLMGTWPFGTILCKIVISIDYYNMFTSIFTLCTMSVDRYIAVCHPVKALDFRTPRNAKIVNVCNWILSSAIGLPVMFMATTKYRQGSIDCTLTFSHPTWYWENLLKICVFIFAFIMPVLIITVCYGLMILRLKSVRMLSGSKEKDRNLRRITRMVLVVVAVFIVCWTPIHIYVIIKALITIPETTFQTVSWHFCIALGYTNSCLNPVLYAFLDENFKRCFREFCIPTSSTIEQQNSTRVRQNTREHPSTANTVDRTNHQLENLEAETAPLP

For `COc1ccc(S(=O)(=O)N2CCSC23CCNCC3)cc1` [S-C0027], under setting [1], the “MOR agonist activity, [35S]GTPγS binding, FLNA-binding compound as agonist at 0.1 μM” value (“MOR agonist activity … at 0.1 μM” for short) is on record as 156.2%. The “MOR agonist activity, [35S]GTPγS binding, 1 μM + BFNA” value (“MOR agonist activity … 1 μM + BFNA” below) (striatal membranes) was 56.2%. Also, the “MOR agonist activity, [35S]GTPγS binding, FLNA-binding compound as agonist at 1 μM” value (“MOR agonist activity … as agonist at 1 μM” below) under setting [2] is on record as 286.8%.
`COc1cccc(CC(=O)CC2c3c(cc4c(c3OC)OCO4)CC[N+]2(C)C)c1OC.[I-]` (stereo not shown) [Compound B0038]: for the setting “Series B, 1 μM compound, [35S]GTPγS binding to Gαo, striatal membranes”, the “MOR agonist activity, [35S]GTPγS binding, at 1 μM compound” value is recorded as 205.3%.
Turning to `O=[N+]([O-])c1ccc(S(=O)(=O)N2CCC3(CC2)NCCO3)cc1` [Compound C0040], under setting [1], the “MOR agonist activity … at 0.1 μM” value amounted to 145.8%. The “MOR agonist activity … 1 μM + BFNA” value (striatal membranes) was found to be 90.4%. Further, the “MOR agonist activity … as agonist at 1 μM” value under setting [2] came to 308.3%.
The corresponding values for `CC(=O)c1ccc(S(=O)(=O)N2CCOC23CCN(CC(=O)O)CC3)cc1` [Compound C0100M] are 173.6%, 195.6% and 245.9%.
Turning to `COc1c2c(cc3c1C(CC(=O)c1ccc(F)c(F)c1)[N+](C)(C)CC3)OCO2` (stereo not shown) [Compound B0003], the “% DAMGO + BFNA” value (Series B, 1 μM compound + BFNA relative to DAMGO + BFNA) was 29.0%.
Consider `CC(C)c1ccc(S(=O)(=O)N2CCC3(CC2)OCCN3S(=O)(=O)c2ccc(C(C)C)cc2)cc1` [Compound C0007], for which the “% DAMGO (0.1 μM)” value under setting [3] is 46.0%. For the same compound, the “% DAMGO + BFNA” value under setting [4] amounted to 17.0%.
For `COc1ccc(S(=O)(=O)N2CCOC23CCN(C)CC3)cc1` [Compound C0088M], the “MOR agonist activity … at 0.1 μM” value under setting [1] came to 276.3%. For the same compound, for the setting “striatal membranes”, the “MOR agonist activity … 1 μM + BFNA” value turned out to be 177.1%. For the same compound, under setting [2], the “MOR agonist activity … as agonist at 1 μM” value was found to be 355.3%.
As to `CC(=O)c1ccc(S(=O)(=O)N2CC(=O)NC23CCNCC3)cc1` [Compound C0086M], the “MOR agonist activity … at 0.1 μM” value under setting [1] is on record as 206.8%. Further, the “MOR agonist activity … 1 μM + BFNA” value (striatal membranes) was found to be 152.3%. The “MOR agonist activity … as agonist at 1 μM” value under setting [2] is 265.3%.
For the compound `CC(=O)c1ccc(S(=O)(=O)N2CCOC23CCNCC3)cc1` [Compound C0046], the “MOR agonist activity … at 0.1 μM” value under setting [1] was determined as 286.2%. For the same compound, the “MOR agonist activity … 1 μM + BFNA” value (striatal membranes) came to 156.8%. For the same compound, the “MOR agonist activity … as agonist at 1 μM” value under setting [2] amounted to 492.9%.
For the compound `CC(=O)c1ccc(C(=O)N2CCC3(CC2)OCCN3C(=O)c2ccc(C(C)=O)cc2)cc1` [Compound C0054], the “% DAMGO (0.1 μM)” value under setting [3] is given as 47.0%.
For `C[C@@H](NC(=O)[C@@H](N)Cc1ccc(O)cc1)C(=O)NCC(=O)N(C)[C@@H](Cc1ccccc1)C(=O)NCCO` [DAMGO, [D-Ala2, N-MePhe4, Gly-ol]-enkephalin, reference compound], the “MOR agonist activity ([35S]GTPγS binding to Gαo), preliminary study” value is, setting by setting: (0.1 μM compound as agonist) 144.7%; (1 μM + βNFA) 56.8%; (1 μM compound as agonist) 233.4%. Under setting [1], the “MOR agonist activity … at 0.1 μM” value was 168.5%. Moreover, the “MOR agonist activity … 1 μM + BFNA” value (striatal membranes) amounted to 53.2%. Besides, the “MOR agonist activity … as agonist at 1 μM” value under setting [2] was 266.1%.
As to `O=S(=O)(c1ccc(OC(F)(F)F)cc1)N1CCC2(CC1)OCCN2S(=O)(=O)c1ccc(OC(F)(F)F)cc1` [Compound C0006], the “% DAMGO + BFNA” value under setting [4] was determined as 7.2%.
`O=[N+]([O-])c1ccc(S(=O)(=O)N2CCC3(CC2)NCCCO3)cc1` [Compound C0045]: the “MOR agonist activity … at 0.1 μM” value under setting [1] is 149.2%. The “MOR agonist activity … 1 μM + BFNA” value (striatal membranes) turned out to be 105.3%. Under setting [2], the “MOR agonist activity … as agonist at 1 μM” value is reported as 238.8%.
For `COc1ccc(S(=O)(=O)N2CCC3(CC2)NCCC(=O)N3)cc1` [Compound C0142M], in that order: 143.7%, 98.7% and 192.5%.
As for `Cc1ccc(S(=O)(=O)N2CCOC23CCN(CC2CC2)CC3)cc1` [Compound C0134M], the “MOR agonist activity ([35S]GTPγS binding to Gαo), preliminary study” value is, setting by setting: (0.1 μM compound as agonist) 150.7%; (1 μM + βNFA) 53.2%; (1 μM compound as agonist) 224.0%. The “% DAMGO (0.1 μM)” value (0.1 μM compound, relative to DAMGO) is recorded as 94.6%. The “MOR agonist activity … at 0.1 μM” value under setting [1] was 158.5%. The “MOR agonist activity … 1 μM + BFNA” value (striatal membranes) stood at 46.6%. Besides, the “% DAMGO + BFNA” value (1 μM compound + BFNA, relative to DAMGO + BFNA) was found to be 98.1%. For the same compound, under setting [5], the “% DAMGO (1 μM)” value was 93.3%. The “MOR agonist activity … as agonist at 1 μM” value under setting [2] is reported as 207.3%.
On to `CC(=O)c1ccc(S(=O)(=O)N2CCOC23CCN(C)CC3)cc1` [Compound C0093M], for which the “MOR agonist activity … at 0.1 μM” value under setting [1] was found to be 140.0%. Further, for the setting “striatal membranes”, the “MOR agonist activity … 1 μM + BFNA” value is reported as 44.0%. Moreover, under setting [2], the “MOR agonist activity … as agonist at 1 μM” value turned out to be 211.8%.
In the case of `CCN1CCC2(CC1)OCCN2S(=O)(=O)c1ccc(C(C)=O)cc1` [Compound C0094M], the “MOR agonist activity … at 0.1 μM” value under setting [1] stood at 172.5%. The “MOR agonist activity … 1 μM + BFNA” value (striatal membranes) was determined as 115.3%. Under setting [2], the “MOR agonist activity … as agonist at 1 μM” value is 263.5%.
Consider `CC(=O)c1ccc(S(=O)(=O)N2C(Cc3c[nH]cn3)C(=O)NC23CCNCC3)cc1` (stereo not shown) [Compound C0119M], for which the “MOR agonist activity … at 0.1 μM” value under setting [1] was found to be 105.7%. Moreover, the “MOR agonist activity … 1 μM + BFNA” value (striatal membranes) is 35.1%. For the same compound, the “% DAMGO (1 μM)” value under setting [5] stood at 83.0%. In addition, under setting [2], the “MOR agonist activity … as agonist at 1 μM” value was determined as 167.8%.
Turning to `CC(=O)c1ccc(S(=O)(=O)N2CC(CN(C)C)OC23CCNCC3)cc1` (stereo not shown) [Compound C0118M], under setting [1], the “MOR agonist activity … at 0.1 μM” value worked out at 166.2%. Besides, the “MOR agonist activity … 1 μM + BFNA” value (striatal membranes) came to 79.2%. In addition, under setting [2], the “MOR agonist activity … as agonist at 1 μM” value is listed as 261.5%.
Consider `COc1ccc(NC(=O)N2CCC3(CC2)NCCO3)cc1` [Compound C0151M-2], for which the “MOR agonist activity … at 0.1 μM” value under setting [1] turned out to be 346.8%. Also, the “MOR agonist activity … 1 μM + BFNA” value (striatal membranes) amounted to 212.8%. In addition, the “MOR agonist activity … as agonist at 1 μM” value under setting [2] is 397.6%.
The corresponding values for `COc1ccc(S(=O)(=O)N2CCC3(NCCO3)C3CCCCC32)cc1` (stereo not shown) [Compound C0144M-2] are 186.3%, 125.9% and 295.9%.
`CC(=O)N1CCSC12CCN(S(=O)(=O)c1ccc([N+](=O)[O-])cc1)CC2` [Compound C0050]: the “MOR agonist activity … at 0.1 μM” value under setting [1] is recorded as 110.3%. Besides, under “striatal membranes”, the “MOR agonist activity … 1 μM + BFNA” value was determined as 59.0%. For the same compound, the “MOR agonist activity … as agonist at 1 μM” value under setting [2] is 127.6%.
Consider `CCCCc1ccc(S(=O)(=O)N2CCC3(CC2)OCCN3S(=O)(=O)c2ccc(CCCC)cc2)cc1` [Compound C0030], for which, under setting [3], the “% DAMGO (0.1 μM)” value worked out at 96.0%. Moreover, the “% DAMGO (1 μM)” value (Series C-1, 1 μM compound relative to DAMGO (1 μM)) is 98.0%.
In the case of `CCCCN1CCC2(CC1)OCCN2S(=O)(=O)c1ccc(C(C)=O)cc1` [Compound C0101M], the “MOR agonist activity … at 0.1 μM” value under setting [1] is 138.2%. Further, the “MOR agonist activity … 1 μM + BFNA” value (striatal membranes) came to 174.8%. Also, the “MOR agonist activity … as agonist at 1 μM” value under setting [2] was 274.3%.
Take `CC(=O)c1ccc(S(=O)(=O)N2CCC3(CC2)NCCS3)cc1` [Compound C0060]: the “MOR agonist activity … at 0.1 μM” value under setting [1] turned out to be 166.5%. In addition, the “MOR agonist activity … 1 μM + BFNA” value (striatal membranes) is given as 143.9%. Moreover, the “MOR agonist activity … as agonist at 1 μM” value under setting [2] stood at 218.9%.
For `CC(=O)c1ccc(S(=O)(=O)N2CCOC23CCN(CC2CC2)CC3)cc1` [Compound C0095M], in that order: 189.1%, 107.7% and 224.6%.
As to `COc1cccc(S(=O)(=O)N2CCC3(CC2)OCCN3S(=O)(=O)c2cccc(OC)c2)c1` [Compound C0002], the “% DAMGO + BFNA” value under setting [4] is reported as 6.1%.
